According to patent US10781456B2, “Carbon-neutral and carbon-positive photorespiration bypass routes supporting higher photosynthetic rate and yield” (Max-Planck-Gesellschaft zur Förderung der Wissenschaften …, priority 2015, dated 2020):
Like-named read-outs stand apart in the source and are kept apart here. Blank lines part the entries; values can stand above or below the molecule they belong to.

Columns and labels:
[1] = molecular target: D-fructose 6-phosphate aldolase encoded by E. coli gene fsaA (UniProt P78055); settings: cited from earlier work
[2] = molecular target: D-fructose 6-phosphate aldolase encoded by E. coli gene fsaB (UniProt P32669); settings: cited from earlier work
[3] = molecular target: transaldolase TalB from E. coli (UniProt P0A870); settings: cited from earlier work
[4] = molecular target: transaldolase Tal from B. subtilis (UniProt P19669); settings: cited from earlier work
[5] = molecular target: transaldolase Tal from C. glutamicum (UniProt Q8NQ64); settings: cited from earlier work
[6] = substrate: O=C(COP(=O)(O)O)[C@H](O)[C@H](O)CO; assay: isomerisation of D-ribulose 1-phosphate to D-ribose 1-phosphate (reaction 29#), preliminary study; type: biochemical; settings: other: preliminary study
[7] = tested on: glycolyl-CoA; assay: propionyl-CoA carboxylase ATP hydrolysis assay coupled to PK/LDH, NADH oxidation at 340 nm, product tartronyl-CoA confirmed by UPLC-hrMS (reaction 3#); type: biochemical
Procedure: The activity of the PCCMe_D407I_Y143H protein as well as the PCCMe protein was determined spectrophotometrically at 37° C. The ATP hydrolysis reaction of the respective enzyme was coupled to ATP regeneration by pyruvate kinase (PK) with phosphoenolpyruvate (PEP) and subsequent reduction to lactate by lactate dehydrogenase (LDH). The oxidation of NADH by LDH was followed spectrophotometrically at 340 nm. The reaction mixture (300 μL) contained 200 mM NH4HCO3 buffer, pH 7.7, 5 mM MgCl2, 1 mM ATP, 1 mM PEP, 4 U PK, 5.8 U LDH, 0.3 mM NADH and 48 μg of PCCMe_D407I_Y143H or PCCMe. The reaction was initiated by addition of 1 mM glycolyl-CoA. Samples for UPLC-hrMS were withdrawn and stopped by acidification (5% formic acid) after most of the NADH was consumed. Precipitated protein was removed by centrifugation at 4° C. and 17 000×g. The supernatants were analyzed by UPLC-hrMS as described above. […] As mentioned above, and shown in FIG. 10, the glycolyl-CoA carboxylation activity of the PCCMe_D407I_Y143H enzyme was confirmed by direct detection of the product tartronyl-CoA by UPLC-hrMS.
In a second assay, the reaction mixture was slightly modified for a ^13C labeling experiment. Here, the reaction mixture contained 50 mM NH4HCO3 buffer, pH 7.7 and 150 mM [^13C]NaHCO3, pH 7.7 (otherwise as above-mentioned). […]

[8] = tested on: glycolyl-CoA; assay: MCRCa coupled assay: glycolyl-CoA carboxylation by PCC coupled to two step reduction to glycerate by MCRCa (reactions 3#, 4#, 5), HPLC-hrMS and NADPH absorption; type: biochemical
Procedure: In addition to the above mentioned assays also another assay was performed in which the formation of tartronyl-CoA from glycolyl-CoA (reaction 3#) by the PCCMe_D407I_Y143H enzyme was directly coupled to its subsequent two step reduction via tartronate-semialdehyde (reaction 4#) to glycerate (reaction 5) by use of the purified MCRCa (Kröger et al., 2011, loc. cit.). The reaction mixture (300 μL) contained 200 mM NH4HCO3 buffer, pH 7.7, 5 mM MgCl2, 1 mM ATP, 0.4 mM NADPH, 43 μg PCCMe_D407I_Y143H, and 184 μg of MCRCa.
To determine whether MCRCa was able to catalyze the two step reduction of tartonyl-CoA to glycerate (via tartronic semialdehyde), samples of the reaction mixture were withdrawn after all of the NADPH was consumed. The samples were stopped with formic acid (5% final concentration). The acidified samples were centrifuged at 4° C. and 17 000×g and the supernatants were analyzed by HPLC-hrMS.
The formation of glycerate was analyzed using an Agilent 6550 iFunnel Q-TOF LC-MS system equipped with an electrospray ionization source set to negative ionization mode. […]
LC-MS data were analyzed using MassHunter Qualitative Analysis software (Agilent). […] In such assays the tartronate semialdehyde can be covalently derivatized with phenylhydrazine to a phenylhydrazone, which can be detected by its absorbance at 324 nm and confirmed by its corresponding mass spectrum. […]

[9] = substrate: O=C(O)CO; assay: purified protein, by the assay type; settings: other: 37° C., pH 7.5, 2 mM acetyl-CoA, 10-800 mM glycolate, n=3
[10] = as an acceptor, read-out: KM for glycolaldehyde as an acceptor
[11] = bound stated for both fsaA and fsaB enzymes, read-out: KM (condensation of glycolaldehyde as donor with D-glyceraldehyde 3-phosphate as acceptor)
[12] = D-fructose 6-phosphate and glycolaldehyde, range over the three transaldolases
[13] = transaldolase reaction with D-fructose 6-phosphate, read-out: KM towards glycolaldehyde

Molecule: O=CCO [glycolaldehyde]
Km [1, 10]: > 60 mM | Km [1, 11]: < 1 mM | Km ([1]; read-out: KM for glycolaldehyde): ~0.2 mM | Km [2, 10]: > 60 mM | Km [2, 11]: < 1 mM | vmax [3, 12]: 1.6 to 8.8 µmol/min/mg | Km [3, 13]: > 60 mM | vmax [4, 12]: 1.6 to 8.8 µmol/min/mg | Km [4, 13]: > 60 mM | vmax [5, 12]: 1.6 to 8.8 µmol/min/mg | Km [5, 13]: > 60 mM

B1: 5-methylthio-D-ribulose 1-phosphate 1,2-isomerase Rru_A0360 (Rhodospirillum rubrum ATCC 11170) (protein)
chain: MNVKGTPTRTIWPAREGGAVWIIDQTRLPHEFVTQRLNDLGAVAHAIRAMLVRGAPLIGATAAYGVALGMAEDPSDEGLTRACQTLLATRPTAVNLRWAIEAMAESLAAVPPDQRAQAAWAKAGAICDEDVALNEAIGDHGLGIIKDLARTKGVEKGGEGPINILTHCNAGWLATVDWGTALAPLYKAHDAGLPIHVWVDETRPRNQGASLTAWELNSHGVPHTVIADNTGGHLMQHGLVDMVIVGTDRTTATGDVCNKIGTYLKALAAFDNAVPFYVALPGPTIDWTVNDGLREIPIEQRDAAEVTRVWGRTAAGALEWVTITPTGSPAANYAFDVTPARLITGLITERGVCAASAAGLAGLYPERAPAPVPAGSAAGKGAAATADGAL
notes: preliminary kinetics, preparation not described
kcat [6]: 0.03 s⁻¹

glycolyl-CoA-dependent ATP hydrolysis rate ([7]; 1 mM glycolyl-CoA, 37° C.): 0.4 U mg^−1
B2: PCCMe: propionyl-CoA carboxylase of Methylobacterium extorquens, subunits pccA (SEQ ID NO: 2) and pccB (SEQ ID NO: 4) (protein, listed as Methylobacterium extorquens)
alpha: MFDKILIANRGEIACRIIKTAQKMGIKTVAVYSDADRDAVHVAMADEAVHIGPAPAAQSYLLIEKIIDACKQTGAQAVHPGYGFLSERESFPKALAEAGIVFIGPNPGAIAAMGDKIESKKAAAAAEVSTVPGFLGVIESPEHAVTIADEIGYPVMIKASAGGGGKGMRIAESADEVAEGFARAKSEASSSFGDDRVFVEKFITDPRHIEIQVIGDKHGNVIYLGERECSIQRRNQKVIEEAPSPLLDEETRRKMGEQAVALAKAVNYDSAGTVEFVAGQDKSFYFLEMNTRLQVEHPVTEMITGLDLVELMIRVAAGEKLPLSQDQVKLDGWAVESRVYAEDPTRNFLPSIGRLTTYQPPEEGPLGGAIVRNDTGVEEGGEIAIHYDPMIAKLVTWAPTRLEAIEAQATALDAFAIEGIRHNIPFLATLMAHPRWRDGRLSTGFIKEEFPEGFIAPEPEGPVAHRLAAVAAAIDHKLNIRKRGISGQMRDPSLLTFQRERVVVLSGQRFNVTVDPDGDDLLVTFDDGTTAPVRSAWRPGAPVWSGTVGDQSVAIQVRPLLNGVFLQHAGAAAEARVFTRREAELADLMPVKENAGSGKQLLCPMPGLVKQIMVSEGQEVKNGEPLAIVEAMKMENVLRAERDGTISKIAAKEGDSLAVDAVILEFA
beta: MKDILEKLEERRAQARLGGGEKRLEAQHKRGKLTARERIELLLDHGSFEEFDMFVQHRSTDFGMEKQKIPGDGVVTGWGTVNGRTVFLFSKDFTVFGGSLSEAHAAKIVKVQDMALKMRAPIIGIFDAGGARIQEGVAALGGYGEVFRRNVAASGVIPQISVIMGPCAGGDVYSPAMTDFIFMVRDTSYMFVTGPDVVKTVTNEVVTAEELGGAKVHTSKSSIADGSFENDVEAILQIRRLLDFLPANNIEGVPEIESFDDVNRLDKSLDTLIPDNPNKPYDMGELIRRVVDEGDFFEIQAAYARNIITGFGRVEGRTVGFVANQPLVLAGVLDSDASRKAARFVRFCNAFSIPIVTFVDVPGFLPGTAQEYGGLIKHGAKLLFAYSQATVPLVTIITRKAFGGAYDVMASKHVGADLNYAWPTAQIAVMGAKGAVEIIFRAEIGDADKIAERTKEYEDRFLSPFVAAERGYIDEVIMPHSTRKRIARALGMLRTKEMEQPWKKHDNIPL
modifications: [CDS]1..2004 from SEQ ID NO 1; [CDS]1..1533 from SEQ ID NO 3
glycolyl-CoA carboxylation activity (tartronyl-CoA by UPLC-hrMS) [7]: exhibited a glycolyl-CoA carboxylation activity, although the activity was lower | activity with glycolyl-CoA in the MCRCa coupled assay [8]: no activity could be measured

B3: propionyl-CoA transferase from Ralstonia eutropha (PCTRe), wild type, SEQ ID NO: 12 (Cupriavidus necator H16) (protein)
chain: MKVITAREAAALVQDGWTVASAGFVGAGHAEAVTEALEQRFLQSGLPRDLTLVYSAGQGDRGARGVNHFGNAGMTASIVGGHWRSATRLATLAMAEQCEGYNLPQGVLTHLYRAIAGGKPGVMTKIGLHTFVDPRTAQDARYHGGAVNERARQAIAEGKACWVDAVDFRGDEYLFYPSFPIHCALIRCTAADARGNLSTHREAFHHELLAMAQAAHNSGGIVIAQVESLVDHHEILQAIHVPGILVDYVVVCDNPANHQMTFAESYNPAYVTPWQGEAAVAEAEAAPVAAGPLDARTIVQRRAVMELARRAPRVVNLGVGMPAAVGMLAHQAGLDGFTLTVEAGPIGGTPADGLSFGASAYPEAVVDQPAQFDFYEGGGIDLAILGLAELDGHGNVNVSKFGEGEGASIAGVGGFINITQSARAVVFMGTLTAGGLEVRAGDGGLQIVREGRVKKIVPEVSHLSFNGPYVASLGIPVLYITERAVFEMRAGADGEARLTLVEIAPGVDLQRDVLDQCSTPIAVAQDLREMDARLFQAGPLHL
Km [9]: 51.7 ± 9.6 mM (glycolate) mM
